Data on four molecules can be found in US10442810B2, “Pyrrolotriazine compounds as TAM inhibitors” (Incyte Corporation, priority 2016, dated 2019).

For assay [1], the target named is Tyro3 (Homo sapiens (Human), UniProt Q06418). Description: TAM Enzymatic Assay (HTRF), Tyro3. The settings on record: 0.366 nM Tyro3, 60 min room temperature. The format is biochemical. As to the method:
(§1) The kinase assay buffer contained 50 mM HEPES, pH7.5, 10 mM MgCl2, 1 mM EGTA, 0.01% NP-40 and 2 mM DTT. 0.1 ul test compounds dissolved in DMSO were transferred from compound plates to white 384-well assay plates (Greiner […] plates). […] 4 ul enzyme solution (or assay buffer for the enzyme blank) was added to the appropriate wells in each plate, and then 4 ul/well substrate solution was added to initiate the reaction. The plate was protected from light and incubated at room temperature for 60 min. […] The plate was incubated for 1 h at room temperature, and HTRF (homogenous time resolved fluorescence) signal was measured on a PHERAstar FS plate reader (BMG labtech). Percentage of inhibition was calculated for each concentration and IC50 value was generated from curve fitting with GraphPad Prism software.
On the technique in general: TR-FRET usually uses a lanthanide donor and a delayed reading to cut background.

Assay [2] addresses Axl (Homo sapiens (Human), UniProt P30530). In words: TAM Enzymatic Assay (HTRF), phosphor-Axl. Particulars: 5.1 nM phosphor-Axl, 60 min room temperature. The assay is classed as biochemical. As to the method:
Autophosphorylation of Axl was carried out by incubating the recombinant Axl protein (Life Technologies, PV4275) in buffer containing 50 mM Tris, pH7.5, 0.2 mg/ml Axl, 5 mM ATP, 20 mM MgCl2 and 2 mM DTT at room temperature for 1 hour.
as §1

Assay [3] concerns the target c-Mer (Homo sapiens (Human), UniProt Q12866). Description: TAM Enzymatic Assay (HTRF), c-Mer. The assay is classed as biochemical. The settings on record: 0.0625 nM c-Mer, 60 min room temperature. As to the method: as §1
Assay [4] deals with NK cells. The settings on record: Paolino et al., 2014; cited from earlier work.
In assay [5] the test system is tumor models with different histologies. Particulars: Paolino et al., 2014; cited from earlier work.

Sequence of Axl (P30530 26-894): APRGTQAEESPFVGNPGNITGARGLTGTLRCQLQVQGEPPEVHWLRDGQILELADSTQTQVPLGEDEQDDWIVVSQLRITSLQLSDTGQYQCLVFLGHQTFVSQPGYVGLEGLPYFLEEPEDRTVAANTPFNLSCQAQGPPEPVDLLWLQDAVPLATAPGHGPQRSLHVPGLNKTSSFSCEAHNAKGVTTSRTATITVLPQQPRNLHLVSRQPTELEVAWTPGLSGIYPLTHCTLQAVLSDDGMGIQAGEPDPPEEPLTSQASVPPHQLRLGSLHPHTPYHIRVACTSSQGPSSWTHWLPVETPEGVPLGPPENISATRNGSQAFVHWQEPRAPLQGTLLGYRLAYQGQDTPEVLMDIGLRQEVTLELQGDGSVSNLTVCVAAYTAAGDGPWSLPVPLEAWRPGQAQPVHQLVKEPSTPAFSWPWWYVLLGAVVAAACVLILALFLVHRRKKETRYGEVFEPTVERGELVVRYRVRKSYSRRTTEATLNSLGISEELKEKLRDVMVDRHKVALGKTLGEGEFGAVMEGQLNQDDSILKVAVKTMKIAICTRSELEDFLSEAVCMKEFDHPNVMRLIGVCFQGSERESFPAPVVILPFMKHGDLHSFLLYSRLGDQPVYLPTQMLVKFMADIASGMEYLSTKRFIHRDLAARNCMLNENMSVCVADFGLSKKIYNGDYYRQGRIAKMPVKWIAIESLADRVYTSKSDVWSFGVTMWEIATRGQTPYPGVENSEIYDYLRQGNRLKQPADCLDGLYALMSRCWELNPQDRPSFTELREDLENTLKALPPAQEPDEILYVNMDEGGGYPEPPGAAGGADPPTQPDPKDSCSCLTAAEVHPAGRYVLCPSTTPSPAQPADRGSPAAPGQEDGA
Sequence of c-Mer (Q12866 21-999): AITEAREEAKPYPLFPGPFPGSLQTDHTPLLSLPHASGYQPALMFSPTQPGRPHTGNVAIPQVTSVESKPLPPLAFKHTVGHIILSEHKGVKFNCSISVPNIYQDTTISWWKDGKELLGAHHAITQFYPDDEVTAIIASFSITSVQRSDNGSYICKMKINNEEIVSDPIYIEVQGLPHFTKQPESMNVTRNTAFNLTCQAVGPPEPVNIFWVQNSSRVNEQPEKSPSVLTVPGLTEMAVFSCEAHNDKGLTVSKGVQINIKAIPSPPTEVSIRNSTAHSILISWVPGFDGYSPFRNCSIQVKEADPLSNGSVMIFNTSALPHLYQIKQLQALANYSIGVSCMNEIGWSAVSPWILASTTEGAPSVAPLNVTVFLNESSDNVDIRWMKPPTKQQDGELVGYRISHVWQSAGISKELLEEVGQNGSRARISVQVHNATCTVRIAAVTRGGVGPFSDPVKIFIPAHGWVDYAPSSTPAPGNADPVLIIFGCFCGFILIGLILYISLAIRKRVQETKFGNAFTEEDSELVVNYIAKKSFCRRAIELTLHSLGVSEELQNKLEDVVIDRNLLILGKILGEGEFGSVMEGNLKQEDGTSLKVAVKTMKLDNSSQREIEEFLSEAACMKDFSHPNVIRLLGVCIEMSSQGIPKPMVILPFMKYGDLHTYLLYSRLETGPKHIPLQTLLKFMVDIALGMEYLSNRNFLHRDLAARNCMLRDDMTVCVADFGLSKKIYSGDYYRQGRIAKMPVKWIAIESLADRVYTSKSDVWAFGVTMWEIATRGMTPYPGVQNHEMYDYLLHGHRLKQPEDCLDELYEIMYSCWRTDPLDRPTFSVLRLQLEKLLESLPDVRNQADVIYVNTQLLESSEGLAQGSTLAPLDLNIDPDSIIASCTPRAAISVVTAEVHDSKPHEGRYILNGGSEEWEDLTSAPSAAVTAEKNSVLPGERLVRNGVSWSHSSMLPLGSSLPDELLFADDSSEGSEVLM
Sequence of Tyro3 (Q06418 41-890): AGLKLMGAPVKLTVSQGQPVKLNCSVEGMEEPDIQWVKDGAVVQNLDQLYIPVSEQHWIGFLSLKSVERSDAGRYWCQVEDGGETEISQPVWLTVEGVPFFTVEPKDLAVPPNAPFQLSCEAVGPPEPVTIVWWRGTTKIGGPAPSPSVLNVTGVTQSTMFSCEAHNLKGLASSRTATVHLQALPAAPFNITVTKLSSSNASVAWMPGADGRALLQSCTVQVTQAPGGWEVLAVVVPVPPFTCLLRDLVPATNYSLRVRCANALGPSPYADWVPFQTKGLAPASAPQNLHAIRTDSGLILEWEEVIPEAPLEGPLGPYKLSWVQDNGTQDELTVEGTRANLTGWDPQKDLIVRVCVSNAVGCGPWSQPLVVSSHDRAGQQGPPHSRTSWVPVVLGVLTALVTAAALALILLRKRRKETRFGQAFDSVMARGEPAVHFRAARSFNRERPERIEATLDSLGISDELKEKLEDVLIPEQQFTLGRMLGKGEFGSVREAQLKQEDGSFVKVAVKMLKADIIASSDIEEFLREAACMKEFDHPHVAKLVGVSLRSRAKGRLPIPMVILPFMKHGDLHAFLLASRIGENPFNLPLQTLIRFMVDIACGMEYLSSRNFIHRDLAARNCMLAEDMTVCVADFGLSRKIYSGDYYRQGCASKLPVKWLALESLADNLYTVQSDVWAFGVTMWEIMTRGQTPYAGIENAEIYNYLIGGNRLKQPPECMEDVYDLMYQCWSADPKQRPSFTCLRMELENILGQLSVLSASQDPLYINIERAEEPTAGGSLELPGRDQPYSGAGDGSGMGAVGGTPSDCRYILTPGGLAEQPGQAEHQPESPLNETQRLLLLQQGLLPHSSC

On to `CC(O)Cn1cc(C(=O)Nc2ccc(-c3cc(C4CCN(C(=O)C5CC5)CC4)n4ncnc(N)c34)cc2)c(=O)n(-c2ccccc2)c1=O` (racemic) [Example 80, N-(4-(4-Amino-7-(1-(cyclopropanecarbonyl)piperidin-4-yl)pyrrolo[1,2-f][1,2,4]triazin-5-yl)phenyl)-1-(2-hydroxypropyl)-2,4-dioxo-3-phenyl-1,2,3,4-tetrahydropyrimidine-5-carboxamide], for which the values for the IC50 in assay [1] and in assay [2] were above 100 nM and below 5 nM, respectively.
As for `CC(C)n1cc(C(=O)Nc2ccc(-c3cc(C4CCN(C5CCN(C)C5=O)CC4)n4ncnc(N)c34)cc2)c(=O)n(-c2ccccc2)c1=O` (racemic) [Example 82, N-(4-(4-Amino-7-(1-(1-methyl-2-oxopyrrolidin-3-yl)piperidin-4-yl)pyrrolo[1,2-f][1,2,4]triazin-5-yl)phenyl)-1-isopropyl-2,4-dioxo-3-phenyl-1,2,3,4-tetrahydropyrimidine-5-carboxamide], the figures for the IC50 in assay [3] and in assay [2] were at most 5 nM and below 5 nM, respectively.
For `CC(=O)c1cc(C(=O)Nc2ccc(-c3cc(C4CCN(C(=O)C(C)C)CC4)n4ncnc(N)c34)cc2)c(=O)n(-c2ccccc2)c1C` [Example 112, 5-Acetyl-N-(4-(4-amino-7-(1-isobutyrylpiperidin-4-yl)pyrrolo[1,2-f][1,2,4]triazin-5-yl)phenyl)-6-methyl-2-oxo-1-phenyl-1,2-dihydropyridine-3-carboxamide], the IC50 (usually the midpoint of a concentration-inhibition curve) in assay [1] is 10 to 100 nM; in assay [3], at most 5 nM; in assay [2], below 5 nM.
On to `CCOc1cn(-c2ccc(F)cc2C)nc1C(=O)Nc1ccc(Oc2ccnc3cc(OC)c(OC)cc23)c(F)c1` [LDC1267], for which the “activation of NK cells” value in assay [4] is given as “activates NK cells”. The “metastasis in tumor models” value in assay [5] was “blocks metastasis”.
